Results reported in ChEMBL document CHEMBL1201862, “PubChem BioAssay data set” (2004).
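Test compounds were applied to cells in 96-well plates for 48 hours at 5 doses. GI50 marks 50% less growth.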 The source made the active and inactive calls. Rule as the data show it: active = GI50 up to about 1.1 µM and inactive = higher.

Columns and labels:
Experiment in all cases: NCI-60 cell line screen, 48 h
SK-MEL-5 = tested on: SK-MEL-5
MOLT-4 = tested on: MOLT-4
NCI-H460 = tested on: NCI-H460
UACC-62 = tested on: UACC-62
NCI-H23 = tested on: NCI-H23
NCI-H522 = tested on: NCI-H522
NCI-H226 = tested on: NCI-H226
SNB-19 = tested on: SNB-19
DMS-273 = tested on: DMS-273
KM12 = tested on: KM12
M19-MEL = tested on: M19-MEL
SNB-78 = tested on: SNB-78
OVCAR-3 = tested on: OVCAR-3
HCT-15 = tested on: HCT-15
IGROV-1 = tested on: IGROV-1
K562 = tested on: K562
SNB-75 = tested on: SNB-75
Malme-3M = tested on: Malme-3M
ACHN = tested on: ACHN
TK-10 = tested on: TK-10

SMILES: C=C1C(=O)O[C@H]2C1[C@H](OC(=O)/C(C)=C\COC(C)=O)C[C@]1(CO1)[C@@H]1[C@H](O)[C@H]3O[C@@]3(C)[C@@H]12 (stereo partly specified)
- GI50 (SK-MEL-5): 18.6 µM (inactive)
- GI50 (MOLT-4): 19.5 µM (inactive)
- GI50 (NCI-H460): 33.4 µM (inactive)
- GI50 (UACC-62): 15.8 µM (inactive)
- GI50 (NCI-H23): 14.3 µM (inactive)
- GI50 (NCI-H522): 8.87 µM (inactive)
- GI50 (NCI-H226): 26.8 µM (inactive)
- GI50 (SNB-19): > 100 µM (inactive)
- GI50 (DMS-273): 26.3 µM (inactive)
- GI50 (KM12): 14.8 µM (inactive)
- GI50 (M19-MEL): 15.7 µM (inactive)
- GI50 (SNB-78): 25.9 µM (inactive)
- GI50 (OVCAR-3): 18.3 µM (inactive)
- GI50 (HCT-15): 18.5 µM
- GI50 (IGROV-1): 24 µM (inactive)
- GI50 (K562): 15.2 µM (inactive)
- GI50 (SNB-75): 37 µM (inactive)
- GI50 (Malme-3M): 20.7 µM (inactive)

SMILES: O=C(Nc1ccc(C(F)(F)F)cc1[N+](=O)[O-])C(=O)Nn1c(S)nc2ccccc2c1=O
- GI50 (SK-MEL-5): > 100 µM (inactive)
- GI50 (MOLT-4): > 100 µM (inactive)
- GI50 (NCI-H460): > 100 µM (inactive)
- GI50 (UACC-62): > 100 µM (inactive)
- GI50 (ACHN): > 100 µM (inactive)
- GI50 (NCI-H23): > 100 µM (inactive)
- GI50 (NCI-H522): > 100 µM (inactive)
- GI50 (NCI-H226): > 100 µM (inactive)
- GI50 (SNB-19): > 100 µM (inactive)
- GI50 (DMS-273): > 100 µM (inactive)
- GI50 (KM12): > 100 µM (inactive)
- GI50 (M19-MEL): > 100 µM (inactive)
- GI50 (TK-10): > 100 µM (inactive)
- GI50 (SNB-78): > 100 µM (inactive)
- GI50 (HCT-15): > 100 µM
- GI50 (IGROV-1): > 100 µM (inactive)
- GI50 (K562): > 100 µM (inactive)
- GI50 (SNB-75): > 100 µM (inactive)
- GI50 (Malme-3M): > 100 µM (inactive)

SMILES: C=C1C(=O)OC2/C=C(\C)CC(O)/C=C(/CO)CC(OC(=O)/C(C)=C/C)C12 (stereo unspecified)
- GI50 (SK-MEL-5): 14.8 µM (inactive)
- GI50 (MOLT-4): 18.2 µM (inactive)
- GI50 (NCI-H460): 36 µM (inactive)
- GI50 (UACC-62): 37.8 µM (inactive)
- GI50 (NCI-H23): 27.7 µM (inactive)
- GI50 (NCI-H522): 13 µM (inactive)
- GI50 (NCI-H226): 30 µM (inactive)
- GI50 (SNB-19): 114 µM (inactive)
- GI50 (DMS-273): 24 µM (inactive)
- GI50 (KM12): 45 µM (inactive)
- GI50 (M19-MEL): 23 µM (inactive)
- GI50 (SNB-78): 49.4 µM (inactive)
- GI50 (OVCAR-3): 29.9 µM (inactive)
- GI50 (HCT-15): 38.4 µM
- GI50 (IGROV-1): 37.8 µM (inactive)
- GI50 (K562): 18 µM (inactive)
- GI50 (SNB-75): 133 µM (inactive)
- GI50 (Malme-3M): 18.9 µM (inactive)

SMILES: CCO/N=[N+](\[O-])N(CC)CC
- GI50 (SK-MEL-5): > 100 µM (inactive)
- GI50 (MOLT-4): > 100 µM (inactive)
- GI50 (NCI-H460): > 100 µM (inactive)
- GI50 (UACC-62): > 100 µM (inactive)
- GI50 (ACHN): > 100 µM (inactive)
- GI50 (NCI-H23): > 100 µM (inactive)
- GI50 (NCI-H522): > 100 µM (inactive)
- GI50 (NCI-H226): > 100 µM (inactive)
- GI50 (SNB-19): > 100 µM (inactive)
- GI50 (DMS-273): > 100 µM (inactive)
- GI50 (KM12): > 100 µM (inactive)
- GI50 (M19-MEL): > 100 µM (inactive)
- GI50 (TK-10): > 100 µM (inactive)
- GI50 (SNB-78): > 100 µM (inactive)
- GI50 (OVCAR-3): > 100 µM (inactive)
- GI50 (HCT-15): > 100 µM
- GI50 (IGROV-1): > 100 µM (inactive)
- GI50 (K562): > 100 µM (inactive)

SMILES: COc1ccc(/C(Cl)=C(\C=O)c2ccc(Cl)cc2)cc1OC
- GI50 (SK-MEL-5): 9.25 µM (inactive)
- GI50 (MOLT-4): 2.12 µM (inactive)
- GI50 (NCI-H460): 3.54 µM (inactive)
- GI50 (UACC-62): 5.97 µM (inactive)
- GI50 (ACHN): 3.18 µM (inactive)
- GI50 (NCI-H23): 3.01 µM (inactive)
- GI50 (NCI-H522): 2.47 µM (inactive)
- GI50 (NCI-H226): 4.59 µM (inactive)
- GI50 (SNB-19): 6.73 µM (inactive)
- GI50 (DMS-273): 3.72 µM (inactive)
- GI50 (M19-MEL): 9.12 µM (inactive)
- GI50 (TK-10): 5.26 µM (inactive)
- GI50 (SNB-78): 5.82 µM (inactive)
- GI50 (OVCAR-3): 5.74 µM (inactive)
- GI50 (HCT-15): 3.29 µM
- GI50 (IGROV-1): 8.89 µM (inactive)
- GI50 (K562): 3.69 µM (inactive)
- GI50 (SNB-75): 3.85 µM (inactive)
- GI50 (Malme-3M): 34.9 µM (inactive)

SMILES: Nc1nc(SCCC/C=C/B(O)O)nc2c1ncn2C1OC(CO)C(O)C1O (stereo unspecified)
- GI50 (SK-MEL-5): > 243 µM (inactive)
- GI50 (MOLT-4): > 243 µM (inactive)
- GI50 (NCI-H460): > 243 µM (inactive)
- GI50 (UACC-62): > 243 µM (inactive)
- GI50 (ACHN): > 243 µM (inactive)
- GI50 (NCI-H23): > 243 µM (inactive)
- GI50 (NCI-H522): > 243 µM (inactive)
- GI50 (NCI-H226): > 243 µM (inactive)
- GI50 (SNB-19): > 243 µM (inactive)
- GI50 (DMS-273): > 243 µM (inactive)
- GI50 (KM12): > 243 µM (inactive)
- GI50 (M19-MEL): > 243 µM (inactive)
- GI50 (TK-10): > 243 µM (inactive)
- GI50 (SNB-78): > 243 µM (inactive)
- GI50 (OVCAR-3): > 243 µM (inactive)
- GI50 (HCT-15): > 243 µM
- GI50 (IGROV-1): > 243 µM (inactive)
- GI50 (K562): > 243 µM (inactive)
- GI50 (SNB-75): > 243 µM (inactive)
- GI50 (Malme-3M): > 243 µM (inactive)

SMILES: Cn1nc2ccc3nccc(NCCNCCCl)c3c2n1
- GI50 (MOLT-4): > 100 µM (inactive)
- GI50 (NCI-H460): > 100 µM (inactive)
- GI50 (UACC-62): > 100 µM (inactive)
- GI50 (ACHN): > 100 µM (inactive)
- GI50 (NCI-H522): > 100 µM (inactive)
- GI50 (NCI-H226): > 100 µM (inactive)
- GI50 (SNB-19): > 100 µM (inactive)
- GI50 (DMS-273): > 100 µM (inactive)
- GI50 (KM12): > 100 µM (inactive)
- GI50 (M19-MEL): > 100 µM (inactive)
- GI50 (TK-10): > 100 µM (inactive)
- GI50 (OVCAR-3): > 100 µM (inactive)
- GI50 (HCT-15): > 100 µM
- GI50 (IGROV-1): > 100 µM (inactive)
- GI50 (K562): > 100 µM (inactive)
- GI50 (SNB-75): > 100 µM (inactive)
- GI50 (Malme-3M): > 100 µM (inactive)

SMILES: CN(Cc1cnc2c(N)nc(N)nc2n1)c1ccc(Cl)cc1
- GI50 (SK-MEL-5): > 100 µM (inactive)
- GI50 (MOLT-4): > 100 µM (inactive)
- GI50 (NCI-H460): 42.5 µM (inactive)
- GI50 (UACC-62): 24.4 µM (inactive)
- GI50 (ACHN): 26.6 µM (inactive)
- GI50 (NCI-H23): 34 µM (inactive)
- GI50 (NCI-H226): 1.91 µM (inactive)
- GI50 (SNB-19): 33.3 µM (inactive)
- GI50 (KM12): > 100 µM (inactive)
- GI50 (TK-10): 38.7 µM (inactive)
- GI50 (OVCAR-3): > 100 µM (inactive)
- GI50 (HCT-15): 71.6 µM
- GI50 (IGROV-1): 13.7 µM (inactive)
- GI50 (K562): > 100 µM (inactive)
- GI50 (SNB-75): 12.5 µM (inactive)
- GI50 (Malme-3M): > 100 µM (inactive)

SMILES: COc1cc([N+](=O)[O-])ccc1NC(=O)C(F)(F)F
- GI50 (SK-MEL-5): > 100 µM (inactive)
- GI50 (MOLT-4): > 100 µM (inactive)
- GI50 (NCI-H460): > 100 µM (inactive)
- GI50 (UACC-62): 43.1 µM (inactive)
- GI50 (ACHN): > 100 µM (inactive)
- GI50 (NCI-H23): > 100 µM (inactive)
- GI50 (NCI-H522): 80.7 µM (inactive)
- GI50 (NCI-H226): > 100 µM (inactive)
- GI50 (SNB-19): > 100 µM (inactive)
- GI50 (KM12): 97.9 µM (inactive)
- GI50 (TK-10): > 100 µM (inactive)
- GI50 (OVCAR-3): > 100 µM (inactive)
- GI50 (HCT-15): > 100 µM
- GI50 (IGROV-1): > 100 µM (inactive)
- GI50 (K562): > 100 µM (inactive)
- GI50 (SNB-75): > 100 µM (inactive)
